These results are taken from patent US20080161289A1, “Fused Thiazole Derivatives Having Affinity for the Histamine H3 Receptor” (Glaxo Group Limited, priority 2005, published 2008).

SMILES strings stand for the structures.

This test deals with T1, histamine H3 receptors (Homo sapiens, UniProt Q9Y5N1).
T1 construct: expressed in transfected cells; host or cells: CHO K1 cells carrying pSwitch, transfected with pGeneH3, induced with mifepristone; clone 3H3; membrane preparation
T1 sequence (Q9Y5N1 whole entry): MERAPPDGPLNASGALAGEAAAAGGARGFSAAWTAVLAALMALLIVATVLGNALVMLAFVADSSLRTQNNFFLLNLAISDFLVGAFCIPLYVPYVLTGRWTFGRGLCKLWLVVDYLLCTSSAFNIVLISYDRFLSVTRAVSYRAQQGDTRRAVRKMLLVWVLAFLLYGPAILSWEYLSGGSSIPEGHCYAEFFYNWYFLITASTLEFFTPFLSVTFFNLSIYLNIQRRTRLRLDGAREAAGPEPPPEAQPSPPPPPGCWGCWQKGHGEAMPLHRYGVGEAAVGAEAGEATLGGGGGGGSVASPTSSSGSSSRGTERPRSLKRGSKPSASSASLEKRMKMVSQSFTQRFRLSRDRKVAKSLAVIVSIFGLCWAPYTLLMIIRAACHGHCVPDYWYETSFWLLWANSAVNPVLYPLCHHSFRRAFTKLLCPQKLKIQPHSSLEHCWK
The test is described as follows: Histamine H3 functional antagonist assay ([35S]-GTPγS SPA on membranes from H3 cells). In kind it is biochemical. The following applies: hydrochloride salts tested; H3 functional antagonist assay using membrane prepared from cultured H3 cells; averages of a number of experiments; read-out: functional pKi (fpKi) (converted). The text has this:
A membrane preparation containing histamine H3 receptors may be prepared in accordance with the following procedures:
(i) Generation of Histamine H3 Cell Line
DNA encoding the human histamine H3 gene (Huvar, A. et al. (1999) Mol. Pharmacol. 55(6), 1101-1107) was cloned into a holding vector, pCDNA3.1 TOPO (InVitrogen) and its cDNA was isolated from this vector by restriction digestion of plasmid DNA with the enzymes BamHI and Not-1 and ligated into the inducible expression vector pGene (InVitrogen) digested with the same enzymes. The GeneSwitch™ system (a system where in transgene expression is switched off in the absence of an inducer and switched on in the presence of an inducer) was performed as described in U.S. Pat. Nos. 5,364,791; 5,874,534; and 5,935,934. Ligated DNA was transformed into competent DH5α E. coli host bacterial cells and plated onto Luria Broth (LB) agar containing Zeocin™ (an antibiotic which allows the selection of cells expressing the sh ble gene which is present on pGene and pSwitch) at 50 μg ml^−1. Colonies containing the re-ligated plasmid were identified by restriction analysis. DNA for transfection into mammalian cells was prepared from 250 ml cultures of the host bacterium containing the pGeneH3 plasmid and isolated using a DNA preparation kit (Qiagen Midi-Prep) as per manufacturers guidelines (Qiagen).
CHO K1 cells previously transfected with the pSwitch regulatory plasmid (InVitrogen) were seeded at 2×10e6 cells per T75 flask in Complete Medium, containing Hams F12 (GIBCOBRL, Life Technologies) medium supplemented with 10% v/v dialysed foetal bovine serum, L-glutamine, and hygromycin (100 μg ml^−1), 24 hours prior to use. Plasmid DNA was transfected into the cells using Lipofectamine plus according to the manufacturers guidelines (InVitrogen). 48 hours post transfection cells were placed into complete medium supplemented with 500 μg ml^−1 Zeocin™.
10-14 days post selection 10 nM Mifepristone (InVitrogen), was added to the culture medium to induce the expression of the receptor. 18 hours post induction cells were detached from the flask using ethylenediamine tetra-acetic acid (EDTA; 1:5000; InVitrogen), following several washes with phosphate buffered saline pH 7.4 and resuspended in Sorting Medium containing Minimum Essential Medium (MEM), without phenol red, and supplemented with Earles salts and 3% Foetal Clone II (Hyclone). Approximately 1×10e7 cells were examined for receptor expression by staining with a rabbit polyclonal antibody, 4a, raised against the N-terminal domain of the histamine H3 receptor, incubated on ice for 60 minutes, followed by two washes in sorting medium. Receptor bound antibody was detected by incubation of the cells for 60 minutes on ice with a goat anti rabbit antibody, conjugated with Alexa 488 fluorescence marker (Molecular Probes). Following two further washes with Sorting Medium, cells were filtered through a 50 μm Filcon™ (BD Biosciences) and then analysed on a FACS Vantage SE Flow Cytometer fitted with an Automatic Cell Deposition Unit. Control cells were non-induced cells treated in a similar manner. Positively stained cells were sorted as single cells into 96-well plates, containing Complete Medium containing 500 μg ml^−1 Zeocin™ and allowed to expand before reanalysis for receptor expression via antibody and ligand binding studies. One clone, 3H3, was selected for membrane preparation.
(ii) Membrane Preparation from Cultured Cells
All steps of the protocol are carried out at 4° C. and with pre-cooled reagents. The cell pellet is resuspended in 10 volumes of homogenisation buffer (50 mM N-2-hydroxyethylpiperazine-N′-2-ethanesulfonic acid (HEPES), 1 mM ethylenediamine tetra-acetic acid (EDTA), pH 7.4 with KOH, supplemented with 10e-6M leupeptin (acetyl-leucyl-leucyl-arginal; Sigma L2884), 25 μg/ml bacitracin (Sigma B0125), 1 mM phenylmethylsulfonyl fluoride (PMSF) and 2×10e-6M pepstain A (Sigma)). […]
A general note: Binding of GTPγS marks nucleotide exchange on a G protein.
Consider `O=C(c1ccccn1)N1CCC(c2nc3c(s2)CCN(C2CCC2)CC3)CC1` [Example E90, 6-Cyclobutyl-2-[1-(2-pyridinylcarbonyl)-4-piperidinyl]-5,6,7,8-tetrahydro-4H-[1,3]thiazolo[4,5-d]azepine], for which the Ki was under 1.26 nM.
In the case of `CN1CCN(c2ccc(-c3nc4c(s3)CCN(C3CCC3)CC4)cn2)C1=O` [Example E53, 1-[5-(6-Cyclobutyl-5,6,7,8-tetrahydro-4H-[1,3]thiazolo[4,5-d]azepin-2-yl)-2-pyridinyl]-3-methyl-2-imidazolidinone] it was under 0.316 nM; in that of `Cc1cncc(C(=O)N2CCC(c3nc4c(s3)CCN(C3CCC3)CC4)CC2)n1` [Example E92, 6-Cyclobutyl-2-{1-[(6-methyl-2-pyrazinyl)carbonyl]-4-piperidinyl}-5,6,7,8-tetrahydro-4H-[1,3]thiazolo[4,5-d]azepine], under 1.26 nM; in that of `Cc1ccc(C(=O)N2CCC(c3nc4c(s3)CCN(C3CCC3)CC4)CC2)cc1` [Example E14, 6-Cyclobutyl-2-{1-[(4-methylphenyl)carbonyl]-4-piperidinyl}-5,6,7,8-tetrahydro-4H-[1,3]thiazolo[4,5-d]azepine], under 1.26 nM.
In the case of `N#Cc1ccc(-c2nc3c(s2)CCN(C2CCCC2)CC3)nc1` [Example E74, 6-(6-Cyclopentyl-5,6,7,8-tetrahydro-4H-[1,3]thiazolo[4,5-d]azepin-2-yl)-3-pyridinecarbonitrile] it was under 31.6 nM; in that of `O=C1CCCN1c1ccc(-c2nc3c(s2)CCN(C2CCC2)CC3)cc1` [Example E3, 1-[4-(6-cyclobutyl-5,6,7,8-tetrahydro-4H-[1,3]thiazolo[4,5-d]azepin-2-yl)phenyl]-2-pyrrolidinone], under 0.316 nM; in that of `Cc1cc(C(=O)N2CCC(c3nc4c(s3)CCN(C3CCC3)CC4)CC2)[nH]n1` [Example E79, 6-Cyclobutyl-2-{1-[(3-methyl-1H-pyrazol-5-yl)carbonyl]-4-piperidinyl}-5,6,7,8-tetrahydro-4H-[1,3]thiazolo[4,5-d]azepine], under 1.26 nM.
As for `O=C1NCCN1c1ccc(-c2nc3c(s2)CCN(C2CCC2)CC3)cn1` [Example E103, 1-[5-(6-Cyclobutyl-5,6,7,8-tetrahydro-4H-[1,3]thiazolo[4,5-d]azepin-2-yl)-2-pyridinyl]-2-imidazolidinone], the figure is under 1.26 nM; as for `N#Cc1cncc(N2CCC(c3nc4c(s3)CCN(C3CCC3)CC4)CC2)c1` [Example E66, 5-[4-(6-Cyclobutyl-5,6,7,8-tetrahydro-4H-[1,3]thiazolo[4,5-d]azepin-2-yl)-1-piperidinyl]-3-pyridinecarbonitrile], under 1.26 nM.
Regarding `O=C(c1csnn1)N1CCC(c2nc3c(s2)CCN(C2CCC2)CC3)CC1` [Example E16, 6-Cyclobutyl-2-[1-(1,2,3-thiadiazol-4-ylcarbonyl)-4-piperidinyl]-5,6,7,8-tetrahydro-4H-[1,3]thiazolo[4,5-d]azepine], the Ki is under 1.26 nM.
As for `N#Cc1ccc(N2CCC(c3nc4c(s3)CCN(C3CCC3)CC4)CC2)cn1` [Example E20, 5-[4-(6-Cyclobutyl-5,6,7,8-tetrahydro-4H-[1,3]thiazolo[4,5-d]azepin-2-yl)-1-piperidinyl]-2-pyridinecarbonitrile], the figure is under 0.316 nM; as for `N#Cc1ccc(N2CCC(c3nc4c(s3)CCN(C3CCC3)CC4)C2)cn1` (single isomer, unassigned; (-)) [Example E36, (−)-5-[3-(6-Cyclobutyl-5,6,7,8-tetrahydro-4H-[1,3]thiazolo[4,5-d]azepin-2-yl)-1-pyrrolidinyl]-2-pyridinecarbonitrile], under 0.316 nM; as for `O=C1CCCN1c1ccc(-c2nc3c(s2)CCN(C2CCC2)CC3)cn1` [Example E52, 1-[5-(6-Cyclobutyl-5,6,7,8-tetrahydro-4H-[1,3]thiazolo[4,5-d]azepin-2-yl)-2-pyridinyl]-2-pyrrolidinone], under 0.316 nM.
In the case of `Cn1ccc(C(=O)N2CCC(c3nc4c(s3)CCN(C3CCC3)CC4)CC2)n1` [Example E17, 6-Cyclobutyl-2-{1-[(1-methyl-1H-pyrazol-3-yl)carbonyl]-4-piperidinyl}-5,6,7,8-tetrahydro-4H-[1,3]thiazolo[4,5-d]azepine] it was under 1.26 nM.
As for `Cc1ncccc1C(=O)N1CCC(c2nc3c(s2)CCN(C2CCC2)CC3)CC1` [Example E25, 6-Cyclobutyl-2-{1-[(2-methyl-3-pyridinyl)carbonyl]-4-piperidinyl}-5,6,7,8-tetrahydro-4H-[1,3]thiazolo[4,5-d]azepine], the figure is under 1.26 nM; as for `CNC(=O)c1ccc(N2CCC(c3nc4c(s3)CCN(C3CCC3)CC4)CC2)cn1` [Example E77, 5-[4-(6-Cyclobutyl-5,6,7,8-tetrahydro-4H-[1,3]thiazolo[4,5-d]azepin-2-yl)-1-piperidinyl]-N-methyl-2-pyridinecarboxamide], under 1.26 nM; as for `CNC(=O)c1ccc(-c2nc3c(s2)CCN(C2CCC2)CC3)cn1` [Example E51, 5-(6-Cyclobutyl-5,6,7,8-tetrahydro-4H-[1,3]thiazolo[4,5-d]azepin-2-yl)-N-methyl-2-pyridinecarboxamide], under 1.26 nM.
